The values below come from paper PMC10746543, “Design principles for cyclin K molecular glue degraders” (Nature Chemical Biology, 2023).

“And” between values parts separate entries of the source, which are not always exact repeats. Equal entries are not always repeated. Where two headings read alike, the source gives them in different places.

The target in one assay is T1, CDK12–cyclin K and DDB1 (Homo sapiens, UniProt Q16531+Q9NYV4, K965R).
T1 construct: His6–CDK12 (a.a. 713–1,052); full-length or beta-propeller B domain deletion (ΔBPB: a.a. 396–705 deleted) constructs of His6–DDB1ΔBPB, StrepII–Avi–DDB1, or His6–Spy–DDB1; made in house; host or cells: Trichoplusia ni High Five insect cells (baculovirus)
Put plainly: TR-FRET ternary complex formation assay (compound titration). It counts as binding. The conditions noted are these: for TR-FRET signal at compound concentration: replicate titrations. The source says: A 70 μs delay was employed to reduce background fluorescence. The TR-FRET signal was obtained through calculating the ratio of 520 nm to 490 nm fluorescence, and Prism 9 (GraphPad) was used for further data analysis.
In general terms: TR-FRET usually uses a lanthanide donor and a delayed reading to cut background.

In another assay the test system is HEK293T cells. Put plainly: Drug sensitivity assay (CellTiter-Glo viability) with or without MLN4924 pretreatment. It counts as cell-based, human. The conditions noted are these: Supplementary Table 2; for EC50: Homo sapiens, HEK-293T, HEK293T viability, 72 h, compound alone, read-out: Cellular assays EC50; for Toxicity rescue: MLN4924-mediated cytotoxicity rescue, 10 µM used where n.d. On the procedure:
HEK293T–Cas9 cells were resuspended at 0.15 × 10^6 ml^−1 treated with DMSO or 100 nM MLN4924 and plated on 384-well plates. After 2 h, the indicated drugs were dispensed with a D300 digital dispenser (Tecan). After 3 days of drug exposure, cell viability was assessed using the CellTiter-Glo luminescent assay (Promega, G7572) on an CLARIOstar Plus, MARS 3.4 (BMG LabTech). Cell viabilities were calculated relative to DMSO controls.

The mark [1] stands for this setting: Supplementary Table 2, read-out: TR-FRET EC50 TR-FRET.
The mark [2] stands for this setting: compound concentration 79.2001 nM.
Setting [3] is: compound concentration 158.4 nM.
Where [4] appears, read: compound concentration 309.6 nM.
[5] abbreviates: compound concentration 626.401 nM.
[6] abbreviates: compound concentration 1252.8 nM.
[7] abbreviates: compound concentration 9936.01 nM.
[8] abbreviates: compound concentration 20016 nM.
[9] abbreviates: in vitro complex formation, 50 nM CDK12–cyclin K, 100 nM DDB1, text and figures, read-out: TR-FRET EC50.

T1 sequence (Q9NYV4 713-1052 K965R): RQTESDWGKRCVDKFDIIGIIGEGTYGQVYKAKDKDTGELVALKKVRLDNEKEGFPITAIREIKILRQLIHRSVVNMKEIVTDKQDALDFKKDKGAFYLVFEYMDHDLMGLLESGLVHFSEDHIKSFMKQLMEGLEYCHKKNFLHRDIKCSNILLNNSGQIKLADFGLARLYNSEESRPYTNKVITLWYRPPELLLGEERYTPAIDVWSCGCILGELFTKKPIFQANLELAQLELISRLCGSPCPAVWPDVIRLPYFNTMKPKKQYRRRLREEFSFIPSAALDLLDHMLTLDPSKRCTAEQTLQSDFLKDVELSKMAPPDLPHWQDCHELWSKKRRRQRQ
T1 sequence (O75909 1-267 partner): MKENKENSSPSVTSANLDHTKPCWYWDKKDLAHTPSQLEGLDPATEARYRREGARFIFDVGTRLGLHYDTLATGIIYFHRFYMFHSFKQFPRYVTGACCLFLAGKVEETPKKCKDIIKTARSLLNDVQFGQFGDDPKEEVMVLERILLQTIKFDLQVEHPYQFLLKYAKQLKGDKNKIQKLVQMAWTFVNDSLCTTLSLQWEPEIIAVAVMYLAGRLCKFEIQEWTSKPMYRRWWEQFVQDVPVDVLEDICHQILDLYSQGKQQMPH
T1 sequence (Q16531 whole entry): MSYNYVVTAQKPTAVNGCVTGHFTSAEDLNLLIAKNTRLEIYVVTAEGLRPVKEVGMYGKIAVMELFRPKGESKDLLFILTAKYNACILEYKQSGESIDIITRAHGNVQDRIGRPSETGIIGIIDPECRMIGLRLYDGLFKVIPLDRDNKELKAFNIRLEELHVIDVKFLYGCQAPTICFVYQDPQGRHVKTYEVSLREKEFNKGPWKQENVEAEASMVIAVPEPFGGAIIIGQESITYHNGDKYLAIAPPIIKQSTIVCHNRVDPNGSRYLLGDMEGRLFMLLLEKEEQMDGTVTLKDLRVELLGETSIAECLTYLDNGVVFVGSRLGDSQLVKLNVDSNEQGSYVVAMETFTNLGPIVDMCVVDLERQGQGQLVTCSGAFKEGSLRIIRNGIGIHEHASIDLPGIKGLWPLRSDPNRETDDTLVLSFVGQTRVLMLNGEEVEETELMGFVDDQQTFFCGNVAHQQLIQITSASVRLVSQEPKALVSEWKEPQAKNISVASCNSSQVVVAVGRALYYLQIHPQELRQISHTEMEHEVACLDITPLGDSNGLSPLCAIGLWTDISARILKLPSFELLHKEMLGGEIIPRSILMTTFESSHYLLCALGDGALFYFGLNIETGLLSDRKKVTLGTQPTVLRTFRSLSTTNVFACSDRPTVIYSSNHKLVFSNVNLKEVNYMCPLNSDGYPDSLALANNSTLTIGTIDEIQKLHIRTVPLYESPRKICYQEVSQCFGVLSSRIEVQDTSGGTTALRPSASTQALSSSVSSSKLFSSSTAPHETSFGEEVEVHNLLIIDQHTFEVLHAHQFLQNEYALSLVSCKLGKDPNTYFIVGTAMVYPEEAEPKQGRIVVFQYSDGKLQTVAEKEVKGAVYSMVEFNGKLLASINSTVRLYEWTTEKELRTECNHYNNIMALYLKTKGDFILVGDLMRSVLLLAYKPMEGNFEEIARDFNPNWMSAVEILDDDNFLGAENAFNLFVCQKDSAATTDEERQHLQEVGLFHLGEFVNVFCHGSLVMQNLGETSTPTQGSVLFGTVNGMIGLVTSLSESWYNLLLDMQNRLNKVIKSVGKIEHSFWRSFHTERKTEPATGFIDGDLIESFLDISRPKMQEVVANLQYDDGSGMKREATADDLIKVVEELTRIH

As usually defined, the EC50 is the midpoint of the concentration-response curve. For `Cn1cc(-n2cnc3c(NCc4ccc(OCCO)cc4)nc(N4CCOCC4)nc32)cn1` [DS62], the 50% effective concentration (EC50) is about 2.2 µM on CDK12–cyclin K and DDB1 (setting [1]); 2.2 ± 0.326 µM at CDK12–cyclin K and DDB1 (setting [9]); over 10 µM in the assay with HEK293T cells. In addition, the TR-FRET signal was 0.2045 and 0.2293 at CDK12–cyclin K and DDB1 (compound concentration 4.68 nM); 0.2001 and 0.225 at CDK12–cyclin K and DDB1 (compound concentration 21.6 nM); 0.2055 and 0.2312 at CDK12–cyclin K and DDB1 (compound concentration 36 nM); 0.2131 and 0.2461 at CDK12–cyclin K and DDB1 (setting [2]); 0.2289 and 0.2537 on CDK12–cyclin K and DDB1 (setting [3]); 0.2472 and 0.27 at CDK12–cyclin K and DDB1 (setting [4]). Also, the TR-FRET signal on CDK12–cyclin K and DDB1 (setting [5]) is 0.294 and 0.3255; on CDK12–cyclin K and DDB1 (setting [6]), 0.3562 and 0.4045; on CDK12–cyclin K and DDB1 (compound concentration 2448 nM), 0.4507 and 0.5009; at CDK12–cyclin K and DDB1 (setting [7]), 0.6036 and 0.6674; on CDK12–cyclin K and DDB1 (setting [8]), 0.6334 and 0.6963. The “DDB1–CDK12 complex formation, result in words” value on CDK12–cyclin K and DDB1 (in vitro TR-FRET) is recorded as “incompatible with the DDB1–CDK12 interface”. In addition, the Toxicity rescue in the assay on HEK293T cells came to 0%.

`Cn1cc(-n2cnc3c(NCc4nc5ccccc5[nH]4)nc(N4CCOCC4)nc32)cn1` [DS55]: the EC50 at CDK12–cyclin K and DDB1 (setting [1]) was determined as 0.0356 µM; on CDK12–cyclin K and DDB1 (setting [9]), 0.036 ± 0.002 µM; with HEK293T cells, 1.03 µM. Also, the TR-FRET signal was 0.2624 and 0.2805 at CDK12–cyclin K and DDB1 (compound concentration 0.468 nM); 0.2884 and 0.3105 at CDK12–cyclin K and DDB1 (compound concentration 2.16 nM); 0.3317 and 0.3563 on CDK12–cyclin K and DDB1 (compound concentration 3.6 nM); 0.4199 and 0.4425 on CDK12–cyclin K and DDB1 (compound concentration 7.92001 nM); 0.5444 and 0.5762 on CDK12–cyclin K and DDB1 (compound concentration 15.84 nM); 0.7696 and 0.7908 on CDK12–cyclin K and DDB1 (compound concentration 30.96 nM). Also, the TR-FRET signal was 1.019 and 1.061 on CDK12–cyclin K and DDB1 (compound concentration 62.6401 nM); 1.199 and 1.278 on CDK12–cyclin K and DDB1 (compound concentration 125.28 nM); 1.2725 and 1.386 at CDK12–cyclin K and DDB1 (compound concentration 244.8 nM); 1.352 and 1.424 on CDK12–cyclin K and DDB1 (compound concentration 993.601 nM); 1.301 and 1.386 on CDK12–cyclin K and DDB1 (compound concentration 2001.6 nM). In addition, the “TR-FRET signal at compound concentration 0.468 nM” value on CDK12–cyclin K and DDB1 (compound concentration 0.468 nM, raw replicate titration data) is 0.2624 and 0.2805. The “TR-FRET signal at compound concentration 2.16 nM” value on CDK12–cyclin K and DDB1 (compound concentration 2.16 nM, raw replicate titration data) is 0.2884 and 0.3105. The “TR-FRET signal at compound concentration 3.6 nM” value at CDK12–cyclin K and DDB1 (compound concentration 3.6 nM, raw replicate titration data) was 0.3317 and 0.3563. Further, the “TR-FRET signal at compound concentration 7.92001 nM” value at CDK12–cyclin K and DDB1 (compound concentration 7.92001 nM, raw replicate titration data) is 0.4199 and 0.4425. For the same compound, on CDK12–cyclin K and DDB1 (compound concentration 15.84 nM, raw replicate titration data), the “TR-FRET signal at compound concentration 15.84 nM” value is 0.5444 and 0.5762. Moreover, the “TR-FRET signal at compound concentration 30.96 nM” value at CDK12–cyclin K and DDB1 (compound concentration 30.96 nM, raw replicate titration data) was 0.7696 and 0.7908. Further, the “TR-FRET signal at compound concentration 62.6401 nM” value at CDK12–cyclin K and DDB1 (compound concentration 62.6401 nM, raw replicate titration data) is 1.019 and 1.061. For the same compound, the “TR-FRET signal at compound concentration 125.28 nM” value on CDK12–cyclin K and DDB1 (compound concentration 125.28 nM, raw replicate titration data) was 1.199 and 1.278. Also, the “TR-FRET signal at compound concentration 244.8 nM” value at CDK12–cyclin K and DDB1 (compound concentration 244.8 nM, raw replicate titration data) was 1.2725 and 1.386. Besides, at CDK12–cyclin K and DDB1 (compound concentration 993.601 nM, raw replicate titration data), the “TR-FRET signal at compound concentration 993.601 nM” value was 1.352 and 1.424. For the same compound, the “TR-FRET signal at compound concentration 2001.6 nM” value on CDK12–cyclin K and DDB1 (compound concentration 2001.6 nM, raw replicate titration data) is 1.301 and 1.386. In addition, the Toxicity rescue in the assay with HEK293T cells amounted to 336%.

As to `CC[C@H](CO)Nc1nc(NCc2ccccc2)c2ncn(C(C)C)c2n1` [Roscovitine], the Toxicity rescue with HEK293T cells was found to be 0%.

Turning to `CC[C@H](CO)Nc1nc(NCCCCn2c(=O)oc3ccccc32)c2ncn(C(C)C)c2n1` [DS46], the 50% effective concentration (EC50) on CDK12–cyclin K and DDB1 (setting [1]) was 0.627 µM; in the assay with HEK293T cells it was over 10 µM. Besides, the “TR-FRET signal at compound concentration” value on CDK12–cyclin K and DDB1 (compound concentration 4.68 nM) is 0.1284 and 0.1304; at CDK12–cyclin K and DDB1 (compound concentration 21.6 nM), 0.1505 and 0.151; on CDK12–cyclin K and DDB1 (compound concentration 36 nM), 0.1775 and 0.1803; on CDK12–cyclin K and DDB1 (setting [2]) it was 0.2245 and 0.2264; at CDK12–cyclin K and DDB1 (setting [3]) it was 0.2818 and 0.3032; on CDK12–cyclin K and DDB1 (setting [4]) it was 0.3899 and 0.4001. For the same compound, the “TR-FRET signal at compound concentration” value at CDK12–cyclin K and DDB1 (setting [5]) was 0.5107 and 0.5141; at CDK12–cyclin K and DDB1 (setting [6]), 0.639 and 0.6296; on CDK12–cyclin K and DDB1 (compound concentration 2448 nM) it was 0.7343 and 0.7319; on CDK12–cyclin K and DDB1 (setting [7]), 0.8755 and 0.8533; on CDK12–cyclin K and DDB1 (setting [8]) it was 0.861 and 0.8686. For the same compound, the Toxicity rescue in the assay with HEK293T cells is 0%.

`Cn1cc(-n2cnc3c(NCc4cc5ccccc5[nH]4)nc(N4CCOCC4)nc32)cn1` [DS56]: on CDK12–cyclin K and DDB1 (compound concentration 4.68 nM, raw replicate titration data), the “TR-FRET signal at compound concentration 4.68 nM” value is 0.1981 and 0.2221. In addition, on CDK12–cyclin K and DDB1 (compound concentration 21.6 nM, raw replicate titration data), the “TR-FRET signal at compound concentration 21.6 nM” value is 0.2108 and 0.2312. The “TR-FRET signal at compound concentration 36 nM” value at CDK12–cyclin K and DDB1 (compound concentration 36 nM, raw replicate titration data) is 0.221 and 0.2484. Moreover, at CDK12–cyclin K and DDB1 (compound concentration 79.2001 nM, raw replicate titration data), the “TR-FRET signal at compound concentration 79.2001 nM” value was 0.2309 and 0.2483. Besides, the “TR-FRET signal at compound concentration 158.4 nM” value on CDK12–cyclin K and DDB1 (compound concentration 158.4 nM, raw replicate titration data) is 0.2488 and 0.2752. Moreover, on CDK12–cyclin K and DDB1 (compound concentration 309.6 nM, raw replicate titration data), the “TR-FRET signal at compound concentration 309.6 nM” value was 0.2871 and 0.3205. The “TR-FRET signal at compound concentration 626.401 nM” value at CDK12–cyclin K and DDB1 (compound concentration 626.401 nM, raw replicate titration data) is 0.3642 and 0.3972. For the same compound, at CDK12–cyclin K and DDB1 (compound concentration 1252.8 nM, raw replicate titration data), the “TR-FRET signal at compound concentration 1252.8 nM” value is 0.4852 and 0.5291. Further, the “TR-FRET signal at compound concentration 2448 nM” value at CDK12–cyclin K and DDB1 (compound concentration 2448 nM, raw replicate titration data) is 0.6251 and 0.6926. Further, the “TR-FRET signal at compound concentration 9936.01 nM” value on CDK12–cyclin K and DDB1 (compound concentration 9936.01 nM, raw replicate titration data) was 0.9055 and 1.021. Further, the “TR-FRET signal at compound concentration 20016 nM” value on CDK12–cyclin K and DDB1 (compound concentration 20016 nM, raw replicate titration data) was 0.9207 and 1.03. On CDK12–cyclin K and DDB1 (setting [9]), the EC50 came out at 2.11 ± 0.252 µM.
